Test results from patent publication US20240279217A1, “Heterocyclic compounds for the treatment of tuberculosis” (TECNIMEDE - SOCIEDADE TÉCNICO-MEDICINAL, SA, priority 2021, published 2024).

Tests used:
[1] = Metabolic stability assay in liver microsomes; assay type: in vitro ADME; details: human, pH 7.4, 37° C., 60 minutes
Method: In an embodiment, metabolic stability assay was carried out. Metabolic stability was assessed by incubating test compounds in 96-well plates in 5 aliquots of 40 μL each (one for each time point) in liver microsomal incubation medium. This medium contained MgCl2 (3.3 mM), NADPH-cofactor system (NADPH (3 mM), glucose-6-phosphate (5.3 mM), glucose-6-phosphate dehydrogenase (0.67 units/ml)) and 0.42 mg of liver microsomal protein per ml in phosphate buffer (100 mM, pH 7.4). Control incubations were performed replacing the NADPH-cofactor system by phosphate buffer. Test compounds (1 μM, final solvent concentration 1.6%) were incubated with microsomes at 37° C. and 100 rpm orbital shaking.
Imipramine and Propranolol were incubated in parallel as reference compounds. Each reaction was performed in duplicate. Five time points over a duration 60 minutes were analysed. The reactions were stopped by adding 12 volumes of 90% acetonitrile in water to incubation aliquots, followed by protein sedimentation by centrifugation. Supernatants were analysed using a Shimadzu VP HPLC system with a reverse phase HPLC column, coupled with tandem mass spectrometer API 3000 (PE Sciex). […] The elimination constant (kel), half-life (t1/2) and intrinsic clearance (Clint) were determined in plot of In(AUC) versus time, using linear regression analysis for each test and reference compound.

[2] = pKa determination by potentiometric titration; assay type: physicochemical; details: acidified MeOH-water (1:4) solution of NaCl, 25° C.
Method: In an embodiment, pKa determination assay was carried out. The tendency of a compound to donate a proton is measured as its acid ionization constant (dissociation constant), or Ka. A more practical scale of representing acidity is pKa which is the negative logarithm of the Ka (pKa=−log Ka). The pKa determinations of the test compounds and 3 reference compounds were assessed by potentiometric titration, in accordance with the technical protocols for pKa measurement provided by Pion Inc. and Sirius Analytical Inc. Briefly, compounds pKa were determined by pH-metric method based on potentiometric acid-base titration at 25° C. The test and reference compounds were dissolved in acidified MeOH-water (1:4) solution of NaCl (150 mM, pH 2) and slowly titrated with 10 mM NaOH MeOH-water (1:4) solution. The recorded pH of the solution as a function of NaOH volume used during the titration were used to construct the titration curve. Titration of acidified NaCl solution in absence of any compound was used for blank plotting. Buffering capacity was calculated in each point of titration curve as the ratio of the NaOH flow (constant) to the pH rise velocity. The pKa value is determined from resulting plot of buffering capacity versus pH as the maximum of buffering capacity. pH-Metric method allows to measure pKa's in range between 2 and 12. […]

[3] = Human plasma protein binding (PPB) assay, equilibrium dialysis; assay type: in vitro ADME; details: non-diluted plasma, pH 7.4, percentage of plasma protein bounded compound, 5 hours dialysis, read-out: hPPB
Method: In an embodiment, human plasma protein binding (PPB) assay was carried out. The assay was performed in a multiple-use 96-well dialysis unit (HTD96b dialyzer). Each individual well unit consisted of 2 chambers separated by a vertically aligned dialysis membrane of predetermined pore size (MWCO 12-14 kDa). 120 μl of non-diluted plasma spiked with the compound (1 μM, 1% final DMSO concentration) was added to one chamber and the same volume of phosphate buffer saline pH 7.4 to the other chamber. HTD96b dialyzer was covered with adhesive sealing film and incubated at 37° C. and 100 rpm orbital shaking for 5 hours. Verapamil was also evaluated in parallel as reference compound. For sample preparation, an aliquot of the content of each chamber was mixed with the same volume of the blank opposite matrix. […] Supernatants were analysed using a Shimadzu VP HPLC system with a reverse phase column, coupled with a tandem mass spectrometer API 3000 (PE Sciex). […]
The percentage of plasma protein bounded compound and its recovery were calculated using the equations below: […]
The percentage of plasma protein bounded compound and its recovery were calculated using the values obtained for each compound in the quantification of the 3 samples (in buffer, plasma and standard solution).

COc1cccc2ccc(N3CCC(c4nc(-c5ccc(OC(F)(F)F)cc5)no4)CC3)nc12 [Compound 3, 5-(1-(8-methoxyquinolin-2-yl)piperidin-4-yl)-3-(4-(trifluoromethoxy)phenyl)-1,2,4-oxadiazole] showed a half-life at 1 μM [1] of 3.03 h, a microsomal CLint at 1 μM [1] of 9.2 µL/min/mg and a pKa [2] of 3.9. It also gave a fraction unbound at 5 h, 1 μM [3] of no more than 0.001.
